# Results: US20210278393A1, “METHOD FOR MEASURING SINGLE-CELL BIOMASS TO PREDICT CLINICAL OUTCOMES FOR STEM CELL TRANSPLANT PATIENTS” (VIRGINIA COMMONWEALTH UNIVERSITY, priority 2016, published 2021)
# Assays:
# M249R4 cells = test: HSLCI kinase inhibitor screen in Vemurafenib-resistant melanoma; format: cell-based, human
# Description: (§1) Kinase inhibitor screen. 1× Dose Determination: For each inhibitor, a 1× dose was calculated. Briefly, recommended clinical doses were obtained from published package inserts. Doses were matched to peak serum concentrations (Cmax (ng/mL)) for each inhibitor as measured in clinical trials in which the recommended doses were utilized. Using each drugs' molecular weight, peak serum concentration values were converted to uM units and designated as 1×. […] Cobimetinib and Binimetinib were supplied as dry powders and suspended in DMSO to a final stock concentration of 10 mM upon receipt. Cell Preparation and Dosing: M249R4 cells were plated in a 24-well optical glass-bottomed plate (Cat. #P24-0-N, Cellvis) at 1×10^4 cells/ml (total of 1 mL in each of 24 wells) in media (DMEM, 10% Fetal Bovine Serum, 2 mM L-Glutamine) containing 1 uM Vemurafenib. Plated cells were allowed to adhere overnight at 37° C., 5% CO2. All cells were washed with 1× phosphate-buffered saline, pH 7.4, and provided with fresh media. Immediately following washing and feeding, cells were dosed with inhibitors at dose-escalating concentrations and incubated under standard cell culture conditions for 24 hours. After incubation, cells were imaged for 10 hours using the HSLCI system.
# (§2) These inhibitors target a spectrum of kinases (Table 2). […] For each targeted kinase inhibitor, a 1× dose was calculated to match the peak tolerated serum concentration (Cmax (ng/mL)), as measured in clinical trials. Our first assay screened all seven inhibitors at several concentrations to identify those that elicited the most apparent reduction in cell growth rates.
# [1] = Peak serum concentration (Cmax) in clinical trials at recommended clinical dose; format: in vivo, human; details: 1× dose for the screen
# Description: as §1, §2
# [2] = at recommended clinical dose, clinical trials; cited from earlier work
# [3] = tested on: all three parental lines (M229P, M238P, M249P); test: HSLCI population kinetic response (biomass growth rate); format: cell-based, human; details: 5 μM Vemurafenib
# From the text: Live Cell Interferometry. The standard and high speed LCI platforms were based on a custom built inverted microscope, coupled to a quantitative phase detecting camera (SID4BIO, Phasics) which consists of a modified Shack-Hartman mask, fitted to a 1600×1200 pixel CCD camera [Imprex B1621]). The phase calculation down samples the raw image to 400×300 pixels, resulting in effective pixel sizes between 1.3 μm and 2.5 μm, depending on the objective. […] In both the standard and high speed systems, position was determined by maximizing contrast during a vertical scan though focus. […]
# Image analysis. Raw interferograms were converted to phase images using the manufacturer's software and analyzed with our custom MATLAB script (The MathWorks). […] Using the resulting flattened phase images, single cells segmented from the background using Canny spatial-derivative edge detection algorithms, their locations, and optical volumes were recorded. […] Single cell growth tracks were quality filtered using an upper cutoff of +1-15% uncertainty (s.d. of residuals) in the calculated growth rate, as determined by linear fitting the biomass versus time data. […]
# [4] = second assay, up to 10× concentration
SMILES,dose response (M249R4 cells; first assay),uM (1×) (peak serum concentration converted using molecular weight) [1],"Serum Conc. (ng/mL) (peak serum concentration, Cmax) [2]","dose response (M249R4 cells; second assay, dosing range 0.05×-1×)","growth rate response (M249R4 cells; first assay, 0.1×)","growth rate response (M249R4 cells; second assay, doses greater than 0.1×)",cell killing (M249R4 cells; [4]),dose response (M249R4 cells; [4]),time by which significant growth rate reduction occurred [3]
Cn1cnc2c(F)c(Nc3ccc(Br)cc3F)c(C(=O)NOCCO)cc21 [Binimetinib],slight dose response,0.58 µM,257.0 ng/mL,–,–,–,–,–,–
O=C(c1ccc(F)c(F)c1Nc1ccc(I)cc1F)N1CC(O)([C@@H]2CCCCN2)C1 [Cobimetinib],–,0.51 µM,273 ng/mL,robust dose responses,–,–,–,–,–
CC(C)(C)c1nc(-c2cccc(NS(=O)(=O)c3c(F)cccc3F)c2F)c(-c2ccnc(N)n2)s1 [Dabrafenib],–,2.02 µM,1050 ng/mL,–,slight reduction in growth rate,reduced growth rates,nor does it kill cells,does not elicit a dose response,–
Cn1cnc2c(F)c(Nc3ccc(Br)cc3Cl)c(C(=O)NOCCO)cc21 [Selumetinib],–,2.55 µM,1165 ng/mL,–,–,–,–,–,–
CC(=O)Nc1cccc(-n2c(=O)n(C3CC3)c(=O)c3c(Nc4ccc(I)cc4F)n(C)c(=O)c(C)c32)c1 [Trametinib],–,0.04 µM,22.2 ng/mL,–,–,–,–,–,–
CCCS(=O)(=O)Nc1ccc(F)c(C(=O)c2c[nH]c3ncc(-c4ccc(Cl)cc4)cc23)c1F [Vemurafenib],–,9.80 µM,4800 ng/mL,–,–,–,–,–,≤ 20 h
